Source: article PMC4301629 (PLoS ONE, 2015)

Key:
[1] = test system: HEK293/EBNA cells; assay: IP accumulation (IP-One HTRF) in untransduced HEK-293/EBNA cells; format: cell-based
[2] = test system: CCR5_CHO cells; assay: Ca2+ transient response in CCR5_CHO negative control cells; format: cell-based, Chinese hamster; conditions: S4 Fig.
Method: Cells were resuspended in Hank’s balanced salt solution (Invitrogen) supplemented with 2 mM CaCl2, 10 mM HEPES pH 7.4, 2.5 mM probenecid, plus 1g/L each of glucose and bovine serum albumin (BSA), and seeded in poly-D-lysine coated 96-well black plates with transparent bottom (Costar) at a density of 50,000 cells/0.1 mL per well. Cells were then incubated for 1 h at 37°C with an additional 0.1 mL of buffer containing 4 μM fluo3-AM that was diluted from a stock solution containing 1 mM fluo3-AM dye in DMSO with 10% pluronic acid. After dye loading incubation, plates were washed twice with 100 μL of buffer and refilled with 100 μL of assay buffer. In experiments testing the effect of antagonists, 25 μL of buffer from wells of washed cells were replaced with 25 μL of vehicle or 4× antagonist solution. […] Agonist-evoked Ca^2+ mobilization responses of cell populations were monitored at room temperature simultaneously in all wells of the assay plate using the plate-imaging fluorometric reader FLIPR (MDS Analytical Technologies, Sunnyvale, CA). Measurements consisted of recording baseline fluorescence signal for 10 seconds followed by addition of the test substance and 1–2 minute readings of Ca^2+ transient responses as reported by changes in Ca^2+ dye fluorescence (excitation 488 nm, emission 510–570 nm). […]

[3] = target: β3-AR; conditions: in presence of GTP; cited from earlier work
[4] = target: T1, α1A-AR (Homo sapiens, UniProt P35348); assay: Translocation of GFP-tagged β-arrestin-1/2 in HEK293 cells expressing FLAG-α1A-AR (confocal microscopy); format: cell-based; set-up: expressed in transfected cells; host or cells: HEK-293/EBNA (baculovirus transduction, NaBu induction); conditions: HEK293, 1 μM A-61603 or 1 mM Iso
T1 sequence (P35348 1-466): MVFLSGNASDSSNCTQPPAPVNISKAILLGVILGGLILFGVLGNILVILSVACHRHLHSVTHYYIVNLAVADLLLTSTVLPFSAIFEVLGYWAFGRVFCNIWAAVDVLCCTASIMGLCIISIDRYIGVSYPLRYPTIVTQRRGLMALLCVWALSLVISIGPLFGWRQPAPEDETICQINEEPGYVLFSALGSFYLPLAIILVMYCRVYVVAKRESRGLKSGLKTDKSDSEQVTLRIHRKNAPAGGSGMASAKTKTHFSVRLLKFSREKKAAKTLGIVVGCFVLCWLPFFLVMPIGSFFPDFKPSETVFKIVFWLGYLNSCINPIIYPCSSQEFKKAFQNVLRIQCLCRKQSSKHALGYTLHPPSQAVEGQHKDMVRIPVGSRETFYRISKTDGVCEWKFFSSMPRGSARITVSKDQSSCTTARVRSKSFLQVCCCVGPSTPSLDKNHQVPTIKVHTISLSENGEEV
Method: HEK293 cells were transiently co-transfected with FLAG-tagged α1A – AR and one of the following GFP-tagged proteins: Rab5 (Rab5 Q79L) variant, Rab11 (Rab11 S25N) variant, β-arrestin-1 or β-arrestin-2. Rab5 and Rab11 were kindly provided by Dr. Marino Zerial (Max Planck Institute of Molecular Cell Biology and Genetics, Dresden, Germany). […] After treatment, cells were fixed with freshly prepared 3.7% paraformaldehyde in PBS for 15 min at room temperature. Subsequently, cells were permeabilized with 0.1% Triton X-100 (Sigma-Aldrich) in PBS for 5 min, followed by nonspecific binding site blocking with 3% normal serum (Santa Cruz Biotechnology) in PBS for 1 h. Incubation with Alexa Fluor-568 conjugated anti-FLAG antibodies in blocking solution was done as directed by the manufacturer. Confocal microscopy was performed using a Zeiss LSM 510 META laser scanning microscope (Carl Zeiss, Inc., Thornwood, NY) equipped with a 60X objective, using the following laser wavelengths: excitation at 488 nm and emission at 505–530 nm; excitation at 543 nm and emission at 560–615 nm.
HEK293 cells were co-transfected with FLAG-tagged α1A – AR and GFP- tagged β-arrestin-1 (left panels) or β-arrestin-2 (right panels). […] Cells were then fixed, permeabilized, stained with Alexa Fluor-568 conjugated anti-FLAG antibodies, and analyzed employing confocal microscopy.

Question: Which results are given for CC(C)NCC(O)c1ccc(O)c(O)c1 (centres unmarked) [Iso, isoproterenol]?
Answer: EC50 IP ([1]; HEK293/EBNA untransduced): BQL; IP formation ([1]; untransduced cells, data not shown): not detectable; Ca2+ transient response [2]: not observed; Ki [3]: 1.6 µM; translocation of β-arrestin-1 / β-arrestin-2 [4]: did not cause visible β-arrestin rearrangement
